The values that follow are results of earlier work, collected in PMC13092032, “Unlocking the potential of alkaline polymethacrylates via ionic crosslinking in amorphous solid dispersions” (International Journal of Pharmaceutics: X, 2026).

What is called Log P is the decadic logarithm of the partition coefficient of the neutral form, usually between octanol and water.

For this data set the following is noted: Table 2; no method or source printed.

With `O=C1Nc2ccc(Cl)cc2[C@@](C#CC2CC2)(C(F)(F)F)O1` [Efavirenz], the “Log P” value is listed as 4.7. Turning to `Cc1ccc(-c2cc(C(F)(F)F)nn2-c2ccc(S(N)(=O)=O)cc2)cc1` [Celecoxib], the “Log P” value is listed as 3.5.
